Data reported in US10420758B2, “Indolinyl-sulfonamide inhibitors of tankyrase and methods of use thereof” (The Board of Regents of the University of Texas System, priority 2015, dated 2019).

Assays:
Experiment in all cases: PARP profiling, parsylation of immobilized histone
Type in all cases: biochemical
[1] = target: PARP2 (Homo sapiens, UniProt Q9UGN5)
Method: (§1) Performed by BPS Bioscience Inc., San Diego by following the BPS PARP or TNKS assay kit protocols. The enzymatic reactions were conducted in duplicate at room temperature for 1 hr in a 96 well plate coated with histone substrate. […] of reaction buffer (Tris.HCl, pH 8.0) contains NAD^+, biotinylated NAD^+, activated DNA, recombinant PARP enzyme and 10 μM of the test compound. […] After enzymatic reactions, 50 μL of Streptavidin-horseradish peroxidase was added to each well and the plate was incubated at room temperature for an additional 30 min. 100 μL of developer reagents were added to wells and luminescence was measured using a BioTek Synergy™ 2 microplate reader.

[2] = target: T1, PARP12 (Homo sapiens, UniProt Q9H0J9)
T1 sequence (Q9H0J9 1-701): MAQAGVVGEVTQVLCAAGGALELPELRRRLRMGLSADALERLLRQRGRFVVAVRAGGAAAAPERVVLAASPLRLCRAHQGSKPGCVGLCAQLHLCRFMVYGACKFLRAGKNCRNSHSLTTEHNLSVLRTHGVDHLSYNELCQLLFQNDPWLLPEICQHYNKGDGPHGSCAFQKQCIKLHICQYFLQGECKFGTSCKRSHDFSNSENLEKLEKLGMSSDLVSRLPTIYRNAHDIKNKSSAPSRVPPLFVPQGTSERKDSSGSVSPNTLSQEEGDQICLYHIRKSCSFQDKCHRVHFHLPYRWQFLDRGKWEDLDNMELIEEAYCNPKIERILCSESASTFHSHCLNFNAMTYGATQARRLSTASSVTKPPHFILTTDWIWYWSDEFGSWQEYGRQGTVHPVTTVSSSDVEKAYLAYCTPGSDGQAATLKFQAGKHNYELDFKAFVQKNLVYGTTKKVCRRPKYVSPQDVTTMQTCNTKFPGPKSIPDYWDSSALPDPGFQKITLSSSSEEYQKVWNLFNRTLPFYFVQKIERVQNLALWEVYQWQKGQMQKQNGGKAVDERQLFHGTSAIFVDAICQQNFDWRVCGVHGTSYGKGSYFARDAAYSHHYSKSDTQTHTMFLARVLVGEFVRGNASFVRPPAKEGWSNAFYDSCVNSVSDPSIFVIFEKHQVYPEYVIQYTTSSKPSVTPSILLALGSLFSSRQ
Method: as §1

[3] = target: T2, PARP3 (Homo sapiens, UniProt Q9Y6F1)
T2 sequence (Q9Y6F1 1-533): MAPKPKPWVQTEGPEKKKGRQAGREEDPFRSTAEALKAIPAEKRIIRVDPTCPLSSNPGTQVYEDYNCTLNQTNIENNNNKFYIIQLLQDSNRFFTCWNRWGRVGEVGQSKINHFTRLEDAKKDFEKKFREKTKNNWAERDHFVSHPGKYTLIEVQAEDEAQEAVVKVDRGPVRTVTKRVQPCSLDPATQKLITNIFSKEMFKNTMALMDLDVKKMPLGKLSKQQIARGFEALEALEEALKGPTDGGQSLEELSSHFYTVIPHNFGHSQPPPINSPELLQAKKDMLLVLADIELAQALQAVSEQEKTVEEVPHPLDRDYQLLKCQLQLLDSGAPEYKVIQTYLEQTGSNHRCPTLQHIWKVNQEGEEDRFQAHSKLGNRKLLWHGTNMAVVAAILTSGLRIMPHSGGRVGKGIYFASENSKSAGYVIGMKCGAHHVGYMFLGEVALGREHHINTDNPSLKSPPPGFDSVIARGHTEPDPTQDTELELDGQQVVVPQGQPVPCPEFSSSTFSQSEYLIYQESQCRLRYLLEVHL
Method: as §1

[4] = target: T3, PARP15 (Homo sapiens, UniProt Q460N3)
T3 sequence (Q460N3 1-678): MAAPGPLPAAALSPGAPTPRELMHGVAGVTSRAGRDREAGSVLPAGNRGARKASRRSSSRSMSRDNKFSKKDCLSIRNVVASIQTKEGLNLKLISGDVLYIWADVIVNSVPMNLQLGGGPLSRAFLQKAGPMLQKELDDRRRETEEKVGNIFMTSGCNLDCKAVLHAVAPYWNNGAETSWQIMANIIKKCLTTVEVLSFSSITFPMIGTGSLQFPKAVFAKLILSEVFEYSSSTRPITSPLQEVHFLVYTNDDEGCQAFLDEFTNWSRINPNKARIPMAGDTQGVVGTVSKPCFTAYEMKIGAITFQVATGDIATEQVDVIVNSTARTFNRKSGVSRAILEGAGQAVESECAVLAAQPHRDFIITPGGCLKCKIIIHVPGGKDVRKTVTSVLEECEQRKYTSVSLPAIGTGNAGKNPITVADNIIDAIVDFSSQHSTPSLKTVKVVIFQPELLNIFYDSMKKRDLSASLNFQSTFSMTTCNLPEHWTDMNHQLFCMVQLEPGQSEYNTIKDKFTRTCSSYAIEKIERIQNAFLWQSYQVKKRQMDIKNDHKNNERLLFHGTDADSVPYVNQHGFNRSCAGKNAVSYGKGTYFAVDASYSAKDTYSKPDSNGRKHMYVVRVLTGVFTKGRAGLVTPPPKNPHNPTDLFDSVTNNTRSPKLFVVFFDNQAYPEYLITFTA
Method: as §1

Chain of PARP2 (Q9UGN5 whole entry): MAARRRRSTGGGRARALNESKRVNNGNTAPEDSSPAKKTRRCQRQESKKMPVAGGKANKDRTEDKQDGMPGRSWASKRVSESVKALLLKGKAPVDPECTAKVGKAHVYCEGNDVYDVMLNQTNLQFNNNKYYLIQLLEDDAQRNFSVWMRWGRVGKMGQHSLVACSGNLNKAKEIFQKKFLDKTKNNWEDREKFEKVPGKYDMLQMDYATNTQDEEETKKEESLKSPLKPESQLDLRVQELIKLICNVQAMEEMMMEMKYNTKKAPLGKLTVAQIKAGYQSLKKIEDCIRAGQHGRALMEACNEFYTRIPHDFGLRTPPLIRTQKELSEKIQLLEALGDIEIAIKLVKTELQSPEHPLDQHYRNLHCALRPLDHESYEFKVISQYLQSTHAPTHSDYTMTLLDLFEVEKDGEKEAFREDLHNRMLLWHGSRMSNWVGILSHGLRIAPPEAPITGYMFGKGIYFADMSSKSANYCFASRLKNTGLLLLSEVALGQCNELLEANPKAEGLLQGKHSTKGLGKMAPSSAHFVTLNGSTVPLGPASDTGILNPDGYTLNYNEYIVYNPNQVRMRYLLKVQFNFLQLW

Compound: CCN(C(=O)C1CCN(S(=O)(=O)c2cc3c(cc2Br)CCN3C(C)=O)CC1)c1cccc(C)c1 [IWR-8]
- inhibition at 10 µM ([1]; IWR compounds 10 μM): 3%
- inhibition at 10 µM ([2]; IWR compounds 10 μM): 14%
- inhibition at 10 µM [3]: 11%
- inhibition at 10 µM ([4]; IWR compounds 10 μM): 0%

Compound: O=C(c1cc(Cc2n[nH]c(=O)c3ccccc23)ccc1F)N1CCN(C(=O)C2CC2)CC1 [Olaparib]
- inhibition at 0.02 µM [1]: 100%
- inhibition at 0.02 µM [2]: 84%
- inhibition at 0.02 µM [3]: 100%
- inhibition at 0.02 µM [4]: 82%

Compound: O=C(Nc1cccc2cccnc12)c1ccc(N2C(=O)[C@@H]3[C@H](C2=O)[C@@H]2C=C[C@H]3C2)cc1 [IWR-1]
- % inhibition ([1]; IWR compounds 10 μM): 5%
- % inhibition ([2]; IWR compounds 10 μM): 11%
- % inhibition ([3]; IWR compounds 10 μM): 6%
- % inhibition ([4]; IWR compounds 10 μM): 0%
